Measurements published in patent US4308256A, “Method of inducing analgesia” (American Home Products Corporation, priority 1980, dated 1981).

Columns and labels:
male Charles River rats = test: D'Amour-Smith rat tail-flick procedure (radiant heat, 8 second cut-off), intraventricular injection; assay type: in vivo
Experimental: Intraventricular cannulae, made of 27-gauge stainless steel tubing, are implanted in 300-400 g. male Charles River rats under pentobarbital anesthesia. After a recovery period of at least one week, the rats are restrained in a wire-mesh cylindrical chamber so that the tip of the tail can be positioned at the focal point of a radiant heat source. After an acclimatistation period of 5 minutes, the lamp is turned on and an electric clock activated. Movement of the tip of the tail exposes a photocell to the lamp, which turns off the thermal stimulus and stops the clock. If a rat fails to move its tail within 8 seconds, the heat is automatically turned off to prevent blistering. The intensity of the lamp is adjusted in each case to produce at least three baseline tail-flick latencies of 2.5-4.5 seconds. Tests are initially made every 2 minutes, then every 5 minutes and finally every 15 minutes.
Initially, using the above outlined procedure, the effects of intraventricularly administered leucine-enkephalin are tested in rats according to the above procedure.
The rat tail flick procedure is repeated, first by the simultaneous intraventricular injection of both leucine-enkephalin and bestatin and then by the initial injection of bestatin followed one hour later by the injection of leucine-enkephalin.
The above procedure is repeated again, however, the bestatin is administered first and then one hour later the leucine-enkephalin is administered.
The effects of bestatin alone are tested in rats according to the rat tail flick procedure.

leucine aminopeptidase = conditions: cited from earlier work
bleomycin hydrolase = biological target: T1, bleomycin hydrolase (Homo sapiens, UniProt Q13867); conditions: cited from earlier work
T1 sequence (Q13867 1-455): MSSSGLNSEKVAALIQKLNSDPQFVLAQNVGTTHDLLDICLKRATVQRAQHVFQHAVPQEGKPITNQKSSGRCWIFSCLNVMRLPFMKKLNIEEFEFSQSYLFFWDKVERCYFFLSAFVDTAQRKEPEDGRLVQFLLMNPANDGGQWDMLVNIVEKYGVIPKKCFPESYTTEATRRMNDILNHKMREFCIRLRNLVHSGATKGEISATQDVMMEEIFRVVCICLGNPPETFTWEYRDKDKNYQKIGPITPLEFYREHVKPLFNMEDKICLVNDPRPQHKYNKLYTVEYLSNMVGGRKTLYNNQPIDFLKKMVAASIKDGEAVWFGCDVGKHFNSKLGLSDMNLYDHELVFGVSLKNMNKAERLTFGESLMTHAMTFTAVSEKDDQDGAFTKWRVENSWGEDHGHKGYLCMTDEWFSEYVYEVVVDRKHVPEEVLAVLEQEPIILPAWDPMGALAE

Work on `CC(C)C[C@H](NC(=O)[C@@H](O)[C@H](N)Cc1ccccc1)C(=O)O` [bestatin, [(2S,3R)-3-amino-2-hydroxy-4-phenylbutanoyl]-L-leucine] yielded a Tail-flick latency (male Charles River rats; 400 μg bestatin alone into lateral ventricle, Rat 2, 28 min) of 8.00 s, a Tail-flick latency (male Charles River rats; 400 μg bestatin alone into lateral ventricle, Rat 2, 30 min) of 8.00 s and a Tail-flick latency (male Charles River rats; 400 μg bestatin alone into lateral ventricle, Rat 2, 35 min) of 8.00 s. For the same molecule, the Tail-flick latency (male Charles River rats; 400 μg bestatin alone into lateral ventricle, Rat 2, 40 min) was 8.00 s, the Tail-flick latency (male Charles River rats; 400 μg bestatin alone into lateral ventricle, Rat 2, 45 min) was 8.00 s and the Tail-flick latency (male Charles River rats; 400 μg bestatin alone into lateral ventricle, Rat 2, 50 min) was 8.00 s. For the same molecule, the Tail-flick latency (male Charles River rats; 400 μg bestatin alone into lateral ventricle, Rat 2, 55 min) was 8.00 s, the Tail-flick latency (male Charles River rats; 400 μg bestatin alone into lateral ventricle, Rat 2, 60 min) was 8.00 s and the Tail-flick latency (male Charles River rats; 400 μg bestatin alone into lateral ventricle, Rat 2, 75 min) was 8.00 s. It also gave a Tail-flick latency (male Charles River rats; 400 μg bestatin alone into lateral ventricle, Rat 2, 90 min) of 8.00 s, a Tail-flick latency (male Charles River rats; 400 μg bestatin alone into lateral ventricle, Rat 2, 105 min) of 8.00 s and a Tail-flick latency (male Charles River rats; 400 μg bestatin alone into lateral ventricle, Rat 2, 120 min) of 8.00 s. It also gave a Tail-flick latency (male Charles River rats; 400 μg bestatin alone into lateral ventricle, Rat 2, 135 min) of 8.00 s, a Tail-flick latency (male Charles River rats; 400 μg bestatin alone into lateral ventricle, Rat 2, 150 min) of 8.00 s and a Tail-flick latency (male Charles River rats; 400 μg bestatin alone into lateral ventricle, Rat 2, 165 min) of 8.00 s. For the same molecule, the Tail-flick latency (male Charles River rats; 400 μg bestatin alone into lateral ventricle, Rat 2, 180 min) was 8.00 s, the Tail-flick latency (male Charles River rats; 400 μg bestatin alone into lateral ventricle, Rat 2, 195 min) was 8.00 s and the Tail-flick latency (male Charles River rats; 400 μg bestatin alone into lateral ventricle, Rat 2, 210 min) was 8.00 s. For the same molecule, the Tail-flick latency (male Charles River rats; 400 μg bestatin alone into lateral ventricle, Rat 2, 225 min) was 8.00 s, the Tail-flick latency (male Charles River rats; 400 μg bestatin alone into lateral ventricle, Rat 2, 240 min) was 8.00 s and the Tail-flick latency (male Charles River rats; 400 μg bestatin alone into lateral ventricle, Rat 2, 255 min) was 8.00 s. For the same molecule, the Tail-flick latency (male Charles River rats; 400 μg bestatin alone into lateral ventricle, Rat 2, 270 min) was 8.00 s, the Tail-flick latency (male Charles River rats; 400 μg bestatin alone into lateral ventricle, Rat 2, 285 min) was 8.00 s and the Tail-flick latency (male Charles River rats; 400 μg bestatin alone into lateral ventricle, Rat 2, 300 min) was 5.19 s. It also gave a Tail-flick latency (male Charles River rats; 400 μg bestatin alone into lateral ventricle, Rat 2, 315 min) of 4.32 s, a Tail-flick latency (male Charles River rats; 400 μg bestatin alone into lateral ventricle, Rat 2, 330 min) of 4.11 s and a Tail-flick latency (male Charles River rats; 400 μg leucine-enkephalin + 200 μg bestatin injected together into lateral ventricle, 1 rat, 2 min) of 7.31 s. It also gave a Tail-flick latency (male Charles River rats; 400 μg leucine-enkephalin + 200 μg bestatin injected together into lateral ventricle, 1 rat, 4 min) of 7.56 s, a Tail-flick latency (male Charles River rats; 400 μg leucine-enkephalin + 200 μg bestatin injected together into lateral ventricle, 1 rat, 6 min) of 5.78 s and a Tail-flick latency (male Charles River rats; 400 μg leucine-enkephalin + 200 μg bestatin injected together into lateral ventricle, 1 rat, 8 min) of 6.69 s. For the same molecule, the Tail-flick latency (male Charles River rats; 400 μg leucine-enkephalin + 200 μg bestatin injected together into lateral ventricle, 1 rat, 10 min) was 6.99 s, the Tail-flick latency (male Charles River rats; 400 μg leucine-enkephalin + 200 μg bestatin injected together into lateral ventricle, 1 rat, 12 min) was 8.00 s and the Tail-flick latency (male Charles River rats; 400 μg leucine-enkephalin + 200 μg bestatin injected together into lateral ventricle, 1 rat, 14 min) was 8.00 s. For the same molecule, the Tail-flick latency (male Charles River rats; 400 μg leucine-enkephalin + 200 μg bestatin injected together into lateral ventricle, 1 rat, 16 min) was 6.50 s, the Tail-flick latency (male Charles River rats; 400 μg leucine-enkephalin + 200 μg bestatin injected together into lateral ventricle, 1 rat, 18 min) was 5.31 s and the Tail-flick latency (male Charles River rats; 400 μg leucine-enkephalin + 200 μg bestatin injected together into lateral ventricle, 1 rat, 20 min) was 2.31 s. It also gave a Tail-flick latency (male Charles River rats; 400 μg leucine-enkephalin + 200 μg bestatin injected together into lateral ventricle, 1 rat, 22 min) of 8.00 s, a Tail-flick latency (male Charles River rats; 400 μg leucine-enkephalin + 200 μg bestatin injected together into lateral ventricle, 1 rat, 24 min) of 6.23 s and a Tail-flick latency (male Charles River rats; 400 μg leucine-enkephalin + 200 μg bestatin injected together into lateral ventricle, 1 rat, 26 min) of 8.00 s. It also gave a Tail-flick latency (male Charles River rats; 400 μg leucine-enkephalin + 200 μg bestatin injected together into lateral ventricle, 1 rat, 28 min) of 8.00 s, a Tail-flick latency (male Charles River rats; 400 μg leucine-enkephalin + 200 μg bestatin injected together into lateral ventricle, 1 rat, 30 min) of 8.00 s and a Tail-flick latency (male Charles River rats; 400 μg leucine-enkephalin + 200 μg bestatin injected together into lateral ventricle, 1 rat, 32 min) of 4.90 s. The Tail-flick latency (male Charles River rats; 400 μg leucine-enkephalin + 200 μg bestatin injected together into lateral ventricle, 1 rat, 34 min) was 8.00 s, the Tail-flick latency (male Charles River rats; 400 μg leucine-enkephalin + 200 μg bestatin injected together into lateral ventricle, 1 rat, 36 min) was 8.00 s and the Tail-flick latency (male Charles River rats; 400 μg leucine-enkephalin + 200 μg bestatin injected together into lateral ventricle, 1 rat, 38 min) was 4.75 s. For the same molecule, the Tail-flick latency (male Charles River rats; 400 μg leucine-enkephalin + 200 μg bestatin injected together into lateral ventricle, 1 rat, 40 min) was 8.00 s, the Tail-flick latency (male Charles River rats; 400 μg leucine-enkephalin + 200 μg bestatin injected together into lateral ventricle, 1 rat, 42 min) was 3.21 s and the Tail-flick latency (male Charles River rats; 400 μg leucine-enkephalin + 200 μg bestatin injected together into lateral ventricle, 1 rat, 44 min) was 3.29 s. The Tail-flick latency (male Charles River rats; 400 μg leucine-enkephalin + 200 μg bestatin injected together into lateral ventricle, 1 rat, 46 min) was 2.47 s, the “Analgesia induced by bestatin alone” value (male Charles River rats; 400 μg level, lateral ventricle, rats) was “very potent analgesia” and the “Effect on the analgesic effects of leucine-enkephalin” value (male Charles River rats; bestatin administered one hour prior to leucine-enkephalin, intraventricular, rat) was “can be extended by bestatin”. For the same molecule, the “Effect on the analgesic effect of leucine-enkephalin” value (male Charles River rats; bestatin given simultaneously with leucine-enkephalin, intraventricular, rat) was “very significantly extend the analgesic effect of leucine-enkephalin”, the “Inhibition of leucine aminopeptidase” value (leucine aminopeptidase) was “inhibitors” and the “Inhibition of bleomycin hydrolase” value (bleomycin hydrolase) was “inhibitors”.
